# Assay results reported in US8227457B2, “Method for treatment of diseases” (DMI Acquisition Corp., priority 2009, dated 2012).
# Assays:
# [1] = tested on: human retinal endothelial cells; assay: Transendothelial electrical resistance (TER), Example 4, retinal cells; format: cell-based; conditions: 1 μM, retinal endothelial cell monolayers
# Method: (§1) […]. Assays were also performed in the same manner using passage 8 human brain endothelial cells and passage 8 human umbilical vein endothelial cells.
# (§2) An initial TER measurement was taken for each insert using EVOM^2 voltohmmeter connected to an STX100 electrode (both from World Precision Instruments). Measurements were also taken at 24, 48, 72 and 144 hours. All data are presented as TER measurements/cm^2 of insert with TER of blank inserts subtracted.
# [2] = tested on: human retinal endothelial cells; assay: Actin stress fiber formation (rhodamine-phalloidin F-actin staining), VEGF, Example 8; format: cell-based; conditions: for effect on VEGF-induced stress fiber pattern: then VEGF 25 ng/ml 30 minutes
# Method: . […] To counter-stain for nuclei, 100 μl of a 3 μM DAPI (4,6-diamidino-2-phenylindole, dilactate (Invitrogen)) solution was added to each well. After 5 minutes, the cells were washed two times with 100 μl PBS.
# [3] = tested on: human retinal endothelial cells; assay: TER of retinal endothelial cell monolayers with steroid receptor antagonists and hormones, Example 10; conditions: for effect on TER compared to the control: Example 10, concentrations of Table 10
# [4] = tested on: HUVECs; assay: HUVEC scratch migration assay; format: cell-based, human; conditions: 50 μM, 75 μM and 100 μM
# Method: Passage 8 HUVECs, lot number 8750 (obtained from Lonza), were plated in 6-well plates (ICS BioExpress) in endothelial growth medium-2 (EGM-2) complete medium (obtained from Lonza). […] The monolayers were then “scratched” with a 1000 μl pipet tip and washed two times with warm EGM-2 medium. […] The wells were photographed again. The gaps were measured in each photograph using Adobe Photoshop software, and gap measurements are presented as the number of pixels in the gap.
# [5] = tested on: Akt; assay: Akt phosphorylation (CASE ELISA kit for AKT S473) in retinal endothelial cells; format: cell-based, human; conditions: all of the concentrations (0.5-50.0 μM)
# Method: The cells were grown in a 25 cm^2 flask to near confluence in EGM-2 medium (Lonza, Walkersville, Md.) containing 2% fetal calf serum (Lonza). […] The plate was incubated at 37° C. with 5% CO2 for 24 hours. […] After this incubation, the cells were fixed immediately with 4% formaldehyde, refrigerated, and the extent of phosphorylation of Akt determined using the Akt Cellular Activation of Signaling ELISA Kit (CASE™ Kit for AKT 5473; SABiosciences, Frederick, Md.) following the manufacturer's protocols. The CASE™ Kit for AKT S473 quantifies the amount of activated (phosphorylated) Akt protein relative to total Akt protein in parallel assays using a conventional ELISA format with colorimetric detection. The Akt phosphorylation site is serine 473 and is recognized by one of the antibodies used in one of the two parallel assays to provide a measure of activated Akt protein. The other antibody used in the other parallel assay recognizes Akt to provide a measure of total Akt protein. Both primary antibodies are detected using a horseradish peroxidase-labeled secondary antibody. Addition of the manufacturer's Developing Solution for 10 minutes, followed by addition of the manufacturer's Stop Solution, produces the result which can be measured colorimetrically.
# [6] = tested on: Primary human umbilical vein endothelial cells (HUVECs); assay: HUVEC cell proliferation (Celltiter 96 AQueous One Solution assay); format: cell-based; conditions: 100 μM danazol, all time points
# Method: Primary human umbilical vein endothelial cells (HUVECs) and EGM-2 growth medium were obtained from Cambrex (Walkersville, Md.). The cells were passaged in medium supplemented with 2% fetal calf serum (FCS) in tissue culture flasks at 37° C. and 5% CO2. Subculturing was performed using trypsin when 60-80% confluence was obtained as specified by the supplier.
# Cryopreserved ampoules of passage 2 HUVECs were thawed and plated in 96 well tissue culture plates at 5,000 cells/cm^2. […]. In short, medium was aspirated from each well and the cells were washed with 200 μl Hepes buffered saline (HBSS) from Cambrex warmed to 37° C. 100 μl diluted celltiter solution (15 μl stock+85 μl EGM-2 containing 0.1% FCS) were added to each well and incubated for an additional 4 hours. Optical density was determined by microplate reader using a 530 nm filter after blank subtraction and data presented as OD±standard deviation. The final concentration of ethanol in the wells was less then 0.2% and had no effect on cell proliferation or viability.
# All data are presented as representative experiments done in triplicate. Differences between subsets were analyzed using student t-test in Microsoft Excel. P<0.05 was considered statistically significant.
# […]. The celltiter assay is based on the reduction of the assay solution by dehydrogenase enzymes to a formazan dye that directly correlates to cell number.
# [7] = tested on: human brain endothelial cells; assay: Transendothelial electrical resistance (TER), Example 4, brain cells; format: cell-based; conditions: 1 μM, brain endothelial cell monolayers, except at the earliest time point
# Method: as §1, §2
# [8] = tested on: human umbilical vein endothelial cells; assay: Transendothelial electrical resistance (TER), Example 4, HUVEC; format: cell-based; conditions: 1 μM, umbilical vein endothelial cell monolayers
# Method: as §1, §2
# [9] = tested on: human retinal endothelial cells; assay: TER of retinal endothelial cell monolayers with steroid receptor antagonists, Example 6; conditions: for effect on TER compared to the control: 0.1 μM, Example 6
# [10] = tested on: HUVECs; assay: HUVEC invasion (BioCoat Matrigel Invasion Chambers); format: cell-based, human; conditions: 10 μM and 100 μM, 24 hours
# Method: BioCoat Matrigel Invasion Chambers were purchased from BD Biosciences (San Jose, Calif.). Inserts were rehydrated at 37° C. with 500 μl HBSS for 2 hours prior to use in humidified incubator. Trypsinized HUVECs were washed twice with warm EGM-2 containing 0.1% FCS and added to the upper chamber of the invasion insert at 100,000 cells in a total volume of 250 μl. […]. Non-invasive cells were removed from the upper chamber with moistened cotton swabs and then the inserts were washed twice with HBSS. The inserts were then submerged in 10 μM calcein AM prepared in HBSS and incubated for 4 hours. Fluorescence was determined in a microplate reader at 485 nm excitation and 595 nm emission.
# All data is presented as representative experiment done in triplicate. Differences between subsets were analyzed using student t-test in Microsoft Excel. P<0.05 was considered statistically significant.
# [11] = tested on: human retinal endothelial cells; assay: Actin stress fiber formation (rhodamine-phalloidin F-actin staining), TNFα, Example 7; conditions: 30 minutes
# [12] = tested on: VE-Cadherin; assay: VE-cadherin phosphorylation (immunoprecipitation, Pro-Q diamond / SYPRO ruby densitometry); format: cell-based, human; conditions: danazol 0.1 μM, VEGF 50 ng/ml
# Method: The plates were immediately treated to lyse the cells as follows. PBS and the lysis buffer (PBS containing 1% Triton X-100 supplemented with phosphatase inhibitor solutions 1 and 2 (Sigma), protease inhibitor (Sigma) and sodium orthovanadate at a final concentration of 2 mM) were cooled to 4° C. The cells were washed two times with 5 ml of the ice cold PBS and then lysed in 500 μl of the ice cold lysis buffer. The resulting protein extracts were transferred to 1.7 ml microcentrifuge tubes, and cell debris was removed by spinning at 4° C. at 10,000 rpm for 10 minutes. Then, 450 μl of the cleared solution was transferred to tubes containing 25 μl of Protein Dynabeads (Invitrogen) coated with 10 μl C19 anti-VE cadherin polyclonal antibody (Santa Cruz Biotechnology) (coating performed following manufacturer's protocol). The extracts and beads were then incubated overnight at 4° C. on an orbital shaker to capture VE cadherin from the extracts. The beads were then washed four times with ice cold lysis buffer. To release the protein from the beads, they were heated for 10 minutes at 75° C. in SDS loading dye containing 20% reducing dye (Invitrogen).
# The released proteins were separated in 4-20% polyacrylamide gels (Invitrogen) at 120 volts for 1 hour. To determine phosphorylation and total protein in the gels, Pro-Q diamond (Invitrogen) and SYPRO ruby (Invitrogen) protein staining were sequentially performed following the manufacturer's protocol. The gels were photographed and densitometry performed using a Kodak imaging station.
# [13] = tested on: human retinal endothelial cells; assay: Actin stress fiber formation, Example 11, retinal cells
# [14] = tested on: human renal glomerular microvascular endothelial cells; assay: ECIS, Example 12, glomerular cells; conditions: danazol 1 μM, S1P 1 μM
# [15] = tested on: HUVECs; assay: HUVEC tube formation assay on matrigel plugs; format: cell-based, human; conditions: 18 hours, 5% FCS
# Method: To investigate the formation of capillary-like structures by HUVECs, the Angiogenesis System: Endothelial Cell Tube Formation Assay was purchased from BD Biosciences (San Jose, Calif.) and used according to the manufacturer's protocol. In brief, 100,000 HUVECs were seeded onto rehydrated matrigel plugs in 96 well tissue culture plates in the presence of 5% FCS to induce tube formation.
# Endothelial cells when cultured in the presence of angiogenic substances and supplied with an extracellular matrix scaffold will differentiate into structures loosely resembling capillary vessels.
# [16] = tested on: human renal glomerular microvascular endothelial cells; assay: Actin stress fiber formation, Example 11, glomerular cells; conditions: danazol 1 μM with TNFα 1 ng/ml
# [17] = tested on: human retinal endothelial cells; assay: ECIS (electric cell-substrate impedance sensing), Example 12, retinal cells
# [18] = 0.1 μM hydroxyflutamide followed by 0.1 μM danazol
compound,measurement,setting,value
"C#C[C@]1(O)CC[C@H]2[C@@H]3CCC4=Cc5oncc5C[C@]4(C)[C@H]3CC[C@@]21C [Danazol, 17α-pregna-2,4-dien-20-yno[2,3-d]isoxazol-17β-ol]",effect on TER,[1],enhanced TER measurements
same,effect on VEGF-induced stress fiber pattern,[2]; 0.1 μM danazol 30 minutes,made the stress fibers less pronounced and some diffuse staining appeared
same,F-actin staining pattern,[2]; 0.1 μM danazol alone,diffuse F-actin staining throughout the cytoplasm
same,effect on VEGF-induced stress fiber pattern,[2]; 1.0 μM danazol 30 minutes,"fewer thick stress fibers, but focal points were seen on contact surfaces"
same,F-actin staining pattern,[2]; 1.0 μM danazol alone,"the diffuse staining persisted, but stress fibers and focal points around the perimeter of most cells were visible"
same,effect on VEGF-induced stress fiber pattern,[2]; 10.0 μM danazol 30 minutes,strong stress fiber development with focal points
same,F-actin staining pattern,[2]; 10.0 μM danazol alone,"no longer any diffuse staining, and stress fiber development and focal points were seen"
same,effect on the TER reduction caused by hydroxyflutamide,[3]; [18],prevented the reduction caused by hydroxyflutamide
same,effect on TER compared to the control,[3],increased the TER measurements
same,effect on HUVEC migration,[4],significantly inhibit HUVEC migration
same,effect on Akt phosphorylation,[5],caused an increase in Akt phosphorylation
same,effect on cell proliferation,[6],complete arrest of cell proliferation
same,effect on TER,[7],did not appear to have much effect
same,effect on TER,[8],enhanced TER measurements
same,effect on the TER reduction caused by hydroxyflutamide,[9]; [18],prevented the reduction caused by hydroxyflutamide
same,effect on TER compared to the control,[9],increased the TER measurements
same,effect on FCS-induced cell invasion,[10],no effect
same,F-actin staining pattern,[11]; 0.1 μM danazol,diffuse staining throughout the cytoplasm
same,F-actin staining pattern,[11]; 10.0 μM danazol,stress fibers with multiple focal points
same,effect on TNFα-induced stress fiber development,"[11]; TNFα 50 ng/ml, danazol 0.1 μM or 10 μM, LY294002 10 μM",decreased the number of cells exhibiting stress fiber development
same,effect on VE-cadherin phosphorylation,[12],caused an increase in VE-cadherin phosphorylation
same,effect on S1P-induced cortical actin rings,"[13]; danazol 1 μM with S1P 1 μM, at 3 hours",seemed to enhance the cortical rings
same,effect on TNFα-induced stress fibers,[13]; danazol 1 μM with TNFα 1 ng/ml,decreased the stress fiber formation and/or the thickness of the fibers at all times
same,time after treatment until which there was no effect on ECIS,[14],about 30 hours
same,effect on tube formation,[15]; 1 μM or 10 μM,no effect on tube formation
same,effect on tube formation,[15]; 50 μM,effective inhibitor of tube formation
same,effect on TNFα-induced stress fibers,[16],decreased the stress fiber formation and the thickness of the fibers at all times
"C[C@]12CC[C@@H]3c4ccc(O)cc4C[C@@H](CCCCCCCCC[S+]([O-])CCCC(F)(F)C(F)(F)F)[C@H]3[C@@H]1CC[C@@H]2O (stereo partly drawn) [Fluvestrant, fluvestrant]",effect on TER compared to the control,[3],essentially no effect
same,effect on TER compared to the control,[9],increased the TER measurements
"CC(C)(O)C(=O)Nc1ccc([N+](=O)[O-])c(C(F)(F)F)c1 [Hydroxyflutamide, hydroxyflutamide]",effect on TER compared to the control,[3],reduced the readings
same,effect on TER compared to the control,[9],reduced the readings
"CCCCCCCCCCCCC/C=C/[C@@H](O)[C@@H](N)COP(=O)(O)O [S1P, sphingosine-1 phosphate]","start of increase of ECIS as compared to untreated cells, after treatment",[17]; S1P 1 μM alone,≤ 15 min
same,persistence of increase of ECIS,"[17]; danazol 1.0 μM, S1P 1 μM",about 3 hours
same,time after treatment until which there was no effect on ECIS,[14],about 30 hours
"C[C@]12CC[C@H]3[C@@H](CCC4=CC(=O)CC[C@@]43C)[C@@H]1CC[C@@H]2O [Testosterone, testosterone]",effect on TER compared to the control,[3],reduced the readings very slightly
TNFα,F-actin staining pattern,[11]; TNFα 50 ng/ml alone,strong stress fiber development with intensely staining focal points
VEGF,F-actin staining pattern,"[2]; VEGF 25 ng/ml alone, 30 minutes",strong stress fiber development
same,effect on VE-cadherin phosphorylation,[12],caused an even greater increase in VE-cadherin phosphorylation
same,Relative intensity - SYPRO results (total protein),[12]; Nil (ethanol control) 1.00,0.84
